The record followed here is ChEMBL document CHEMBL2034869, “Mapping pilicide anti-virulence effect in Escherichia coli, a comprehensive structure-activity study” (Bioorg Med Chem, 2012).

As usually defined, the EC50 is the concentration giving half of the maximal effect.

One assay relates to Escherichia coli. Description: Inhibition of type-1 pili-dependent biofilm formation in Escherichia coli […]. The format is functional, organism-based.
Details: not given; call rule not given here
As to `COc1ccc2c(Cc3cc(=O)n4c(c3C3CC3)SC[C@H]4C(=O)O)cc(=O)oc2c1`, the concentration giving a half-maximal response (EC50) result is “Not Active”.
Same read-out and setting: the same measure for `COc1ccc2c(Cc3cc(=O)n4c(c3-c3ccccc3)SC[C@H]4C(=O)O)cc(=O)oc2c1`: “Not Active”.
Still for that read-out and setting: the same measure for `O=C([O-])[C@@H]1CSc2c(C3CC3)c(Cc3csc4ccccc34)cc(=O)n21.[Li+]`: “Not Active”; for `O=C([O-])[C@@H]1CSc2c(C3CC3)c(Cn3nnc4ccccc43)cc(=O)n21.[Li+]`: “Not Active”.
Still for that read-out and setting: the result for `CC(C)c1c(Cn2nnc3ccccc32)cc(=O)n2c1SC[C@H]2C(=O)[O-].[Li+]` reads “Not Active”.
For `COc1ccc2c(Cc3cc(=O)n4c(c3-c3cccs3)SC[C@H]4C(=O)O)cc(=O)oc2c1`, the EC50 result is given as “Not Active”.
For the molecule `Cc1cccc(OCc2cc(=O)n3c(c2-c2cccnc2)SC[C@H]3C(=O)[O-])c1C.[Li+]`, the EC50 result is recorded as “Not Active”.
For `O=C([O-])[C@@H]1CSc2c(-c3cccnc3)c(Cn3nnc4ccccc43)cc(=O)n21.[Li+]`, the EC50 result is recorded as “Not Active”.
For the molecule `O=C([O-])[C@@H]1CSc2c(-c3cccnc3)c(Cc3ccc4c(c3)OCO4)cc(=O)n21.[Li+]`, the EC50 entry was “Not Active”.
Take `COc1c(Cc2csc3ccccc23)cc(=O)n2c1SC[C@H]2C(=O)[O-].[Li+]`: the EC50 entry is given as “Not Active”.
As for `COc1c(Cc2cccc3ccccc23)cc(=O)n2c1SC[C@H]2C(=O)[O-].[Li+]`, the EC50 result is on record as “Not Active”.
For `COc1c(Cc2ccc3c(c2)OCO3)cc(=O)n2c1SC[C@H]2C(=O)O`, the EC50 entry was “Not Active”.
Still for that read-out and setting: the result for `O=C([O-])[C@@H]1CSc2c(C3CC3)c(Cn3ccc4ccccc43)cc(=O)n21.[Li+]` reads “Not Active”.

The assay is the same for the next values; noted with them: Escherichia coli, UT189; read-out: EC50.
As to `O=C(O)[C@@H]1CSc2c(C3CC3)c(Cc3cccc4ccccc34)cc(=O)n21`, the EC50 worked out at 250 µM.
Same read-out and setting: the same measure for `Cc1cccc(CCc2cc(=O)n3c(c2-c2ccccc2)SC[C@H]3C(=O)O)c1`: 40 µM.
`Cc1cccc(OCc2cc(=O)n3c(c2-c2ccccc2)SC[C@H]3C(=O)O)c1C`: the EC50 stood at 36 µM.
For the molecule `Cc1cccc(CCc2cc(=O)n3c(c2C(C)C)SC[C@H]3C(=O)O)c1`, the EC50 came to 100 µM.
On the same count and under the same terms, the same measure for `CC(C)c1c(Cc2cccc3ccccc23)cc(=O)n2c1SC[C@H]2C(=O)O`: 100 µM; for `O=C(O)[C@@H]1CSc2c(-c3cccs3)c(Cc3cccc4ccccc34)cc(=O)n21`: 39 µM; for `O=C(O)[C@@H]1CSc2c(-c3cccs3)c(COc3cccc4ccccc34)cc(=O)n21`: 14 µM.
The same measure, in the same setting: the same measure for `Cc1cccc(OCc2cc(=O)n3c(c2-c2ccc4c(c2)OCO4)SC[C@H]3C(=O)O)c1C`: 27 µM; for `O=C(O)[C@@H]1CSc2c(-c3ccc4c(c3)OCO4)c(Cc3csc4ccccc34)cc(=O)n21`: 67 µM; for `O=C(O)[C@@H]1CSc2c(-c3ccc4c(c3)OCO4)c(COc3cccc4ccccc34)cc(=O)n21`: 21 µM.
The same measure, in the same setting: the same measure for `Cc1cccc(CCc2cc(=O)n3c(c2-c2c[nH]c4ccccc24)SC[C@H]3C(=O)O)c1`: 74 µM.
With `O=C(O)[C@@H]1CSc2c(-c3c[nH]c4ccccc34)c(COc3cccc4ccccc34)cc(=O)n21`, the EC50 turned out to be 12 µM.
Regarding `O=C(O)[C@@H]1CSc2c(-c3c[nH]c4ccccc34)c(Cc3ccc4c(c3)OCO4)cc(=O)n21`, the EC50 came out at 39 µM.
As for `O=C(O)[C@@H]1CSc2c(-c3cccc(C(F)(F)F)c3)c(Cc3cccc(COc4cccc5ccccc45)c3)cc(=O)n21`, the concentration giving a half-maximal response (EC50) was found to be 1.9 µM.
As for `O=C(O)[C@@H]1CSc2c(C3CC3)c(Cc3cccc(COc4cccc5ccccc45)c3)cc(=O)n21`, the EC50 was 1.4 µM.
The same measure, in the same setting: the same measure for `O=C(O)[C@@H]1CSc2c(-c3ccccc3)c(Cc3cccc4ccccc34)cc(=O)n21`: 40 µM; for `O=C(O)[C@@H]1CSc2c(-c3c[nH]c4ccccc34)c(Cc3cccc4ccccc34)cc(=O)n21`: 31 µM.
For the molecule `Cn1cc(-c2c(COc3cccc4ccccc34)cc(=O)n3c2SC[C@H]3C(=O)O)c2ccccc21`, the EC50 was determined as 10 µM.
Consider `Cn1cc(-c2c(COc3cccc4ccccc34)cc(=O)n3c2SC[C@H]3C(=O)NS(C)(=O)=O)c2ccccc21`, for which the EC50 is 9 µM.
With `Cn1cc(-c2c(COc3cccc4ccccc34)cc(=O)n3c2OC[C@H]3C(=O)O)c2ccccc21`, the EC50 is 18 µM.
The same measure, in the same setting: the same measure for `O=C(O)[C@@H]1COc2c(-c3ccc4c(c3)OCO4)c(COc3cccc4ccccc34)cc(=O)n21`: 19 µM.
`O=C(O)[C@@H]1COc2c(-c3cccs3)c(Cc3cccc4ccccc34)cc(=O)n21`: the EC50 stood at 117 µM.
Still for that read-out and setting: the result for `Cn1cc(-c2c(Cc3cccc(COc4cccc5ccccc45)c3)cc(=O)n3c2SC[C@H]3C(=O)O)c2ccccc21` reads 1.1 µM.
Still for that read-out and setting: the same measure for `O=C(O)[C@@H]1CSc2c(-c3cccc(C(F)(F)F)c3)c(Cc3c4ccccc4cc4ccccc34)cc(=O)n21`: 3 µM.
Consider `Cn1cc(-c2c(COc3cccc(Oc4ccccc4)c3)cc(=O)n3c2SC[C@H]3C(=O)O)c2ccccc21`, for which the EC50 came to 2.1 µM.
`O=C(O)[C@@H]1CSc2c(-c3cccc(C(F)(F)F)c3)c(COc3cccc(Oc4ccccc4)c3)cc(=O)n21`: the EC50 is 4.3 µM.
Still for that read-out and setting: the same measure for `O=C(O)[C@@H]1CSc2c(C3CC3)c(COc3cccc(Oc4ccccc4)c3)cc(=O)n21`: 39 µM; for `Cn1cc(-c2c(COc3cccc4ccccc34)cc(=O)n3c2S[C@H](c2ccccc2)[C@H]3C(=O)O)c2ccccc21`: 1 µM.
Same read-out and setting: the same measure for `O=C(O)[C@@H]1[C@@H](c2ccccc2)Sc2c(-c3ccc4c(c3)OCO4)c(COc3cccc4ccccc34)cc(=O)n21`: 1.2 µM; for `O=C(O)[C@@H]1[C@@H](c2ccccc2)Sc2c(-c3cccs3)c(Cc3cccc4ccccc34)cc(=O)n21`: 0.4 µM; for `CO[C@H]1Sc2c(-c3cn(C)c4ccccc34)c(COc3cccc4ccccc34)cc(=O)n2[C@@H]1C(=O)O`: 2.5 µM.
Same read-out and setting: the result for `CO[C@H]1Sc2c(-c3ccc4c(c3)OCO4)c(COc3cccc4ccccc34)cc(=O)n2[C@@H]1C(=O)O` reads 30 µM; that for `CO[C@H]1Sc2c(-c3cccs3)c(Cc3cccc4ccccc34)cc(=O)n2[C@@H]1C(=O)O`, 92 µM.
For the molecule `Cn1cc(-c2c(COc3cccc4ccccc34)c(CN3CCOCC3)c(=O)n3c2SC[C@H]3C(=O)O)c2ccccc21`, the EC50 was determined as 18 µM.
For the molecule `O=C(O)[C@@H]1CSc2c(-c3ccc4c(c3)OCO4)c(COc3cccc4ccccc34)c(CN3CCOCC3)c(=O)n21`, the EC50 was 32 µM.
Consider `O=C(O)[C@@H]1CSc2c(-c3cccs3)c(Cc3cccc4ccccc34)c(CN3CCOCC3)c(=O)n21`, for which the EC50 amounted to 88 µM.
Turning to `Cn1cc(-c2c(COc3cccc4ccccc34)c(CO)c(=O)n3c2SC[C@H]3C(=O)O)c2ccccc21`, the 50% effective concentration (EC50) worked out at 16 µM.
Consider `O=C(O)[C@@H]1CSc2c(-c3ccc4c(c3)OCO4)c(COc3cccc4ccccc34)c(CO)c(=O)n21`, for which the EC50 was determined as 30 µM.
`O=C(O)[C@@H]1CSc2c(-c3cccs3)c(Cc3cccc4ccccc34)c(CO)c(=O)n21`: the EC50 stood at 250 µM.
The same measure, in the same setting: the same measure for `Cc1cccc(-c2sc3c(-c4cn(C)c5ccccc45)c(COc4cccc5ccccc45)c(CN4CCOCC4)c(=O)n3c2C(=O)O)c1`: 5 µM; for `Cc1cccc(-c2sc3c(-c4ccc5c(c4)OCO5)c(COc4cccc5ccccc45)c(CN4CCOCC4)c(=O)n3c2C(=O)O)c1`: 5 µM.
With `Cc1cccc(-c2sc3c(-c4cn(C)c5ccccc45)c(COc4cccc5ccccc45)cc(=O)n3c2C(=O)O)c1`, the EC50 was 86 µM.
On the same count and under the same terms, the result for `Cc1cccc(-c2sc3c(-c4ccc5c(c4)OCO5)c(COc4cccc5ccccc45)cc(=O)n3c2C(=O)O)c1` reads 20 µM.
